From the Kinase Knowledgebase extract (Sharma et al. 2016)

biological target: CDK2 (UniProt P24941); assay: Enzyme Assay; details: concentration not given here

SMILES | inhibition
NC(=O)c1cc(Cc2ccccc2)sc1NC(=O)COCc1ccccc1 | 100%
Cc1cccc(C(=O)Nc2sc3c(c2C(N)=O)CCCC3)c1 | 100%
CN1CCc2c(sc(NC(=O)CCS(=O)(=O)c3ccccc3)c2C(N)=O)C1 | 100%
COc1ccc(C(=O)Nc2scc(C)c2C(N)=O)c(OC)c1OC | 100%
CN1CCc2c(sc(NC(=O)c3ccc(I)cc3)c2C(N)=O)C1 | 100%
Cc1sc(NC(=O)CNc2cccnc2)c(C(N)=O)c1C | 100%
CN1CCc2c(sc(NC(=O)Cc3ccc(I)cc3)c2C(N)=O)C1 | 100%
NC(=O)c1cc(-c2ccccc2)sc1NC(=O)/C=C/c1ccsc1 | 100%
CC(C)c1cc(C(N)=O)c(NC(=O)c2cccc(F)c2)s1 | 100%
Cc1ccc(C(=O)Nc2sc(-c3ccccc3)cc2C(N)=O)c(O)c1 | 100%
Cc1sc(NC(=O)/C=C\c2ccc(N(C)C)cc2)c(C(N)=O)c1C | 100%
COc1cc(/C=C\C(=O)Nc2scc(C)c2C(N)=O)cc(OC)c1 | 100%
CC(C)c1cc(C(N)=O)c(NC(=O)/C=C/c2c[nH]cn2)s1 | 100%
COc1ccc(C(=O)Nc2sc(Cc3ccccc3)cc2C(N)=O)cc1O | 100%
CC(C)c1cc(C(N)=O)c(NC(=O)/C=C\c2ccccc2)s1 | 100%
COc1ccc(C(=O)Nc2sc(-c3ccccc3)cc2C(N)=O)cc1 | 100%
C=CCN(C(C)=O)C(=O)CNc1sc(-c2ccccc2)cc1C(N)=O | 100%
Cc1ccc(S(=O)(=O)CC(=O)Nc2sc3c(c2C(N)=O)CCN(C)C3)cc1 | 100%
Cc1ccc(S(=O)(=O)NCC(=O)Nc2sc3c(c2C(N)=O)CCN(C)C3)cc1 | 100%
CC(=O)N[C@@H](CC(N)=O)C(=O)Nc1sc(C(C)c2ccccc2)cc1C(N)=O (stereo partly drawn) | 100%
CC(=O)Nc1cccc(C(=O)Nc2sc(C(C)c3ccccc3)cc2C(N)=O)c1 (stereo not drawn) | 100%
Cc1cccc(C(=O)Nc2sc(-c3ccccc3)cc2C(N)=O)c1O | 100%
CC(c1ccccc1)c1cc(C(N)=O)c(NC(=O)CNC(=O)c2ccccc2)s1 (stereo not drawn) | 100%

SMILES | inhibition
CN1CCc2c(sc(NC(=O)Cc3c[nH]c4ccc(F)cc34)c2C(N)=O)C1 | 100%
Cc1sc(NC(=O)Cc2cn(C)c3ccccc23)c(C(N)=O)c1C | 100%
NC(=O)c1cc(Cc2ccccc2)sc1NC(=O)c1c[nH]cn1 | 100%
NC(=O)c1cc(Cc2ccccc2)sc1NC(=O)c1ccc2[nH]cnc2c1 | 100%
CC(=O)Nc1sc2c(c1C(N)=O)CCCC2 | 100%
COc1ccc(OC)c(C(=O)Nc2sc(C)c(C)c2C(N)=O)c1 | 100%
NC(=O)c1c(NC(=O)c2ccsc2)sc2c1CCCC2 | 100%
CC(=O)Nc1ccccc1C(=O)Nc1sc(C(C)c2ccccc2)cc1C(N)=O (stereo not drawn) | 100%
NC(=O)c1cc(Cc2ccccc2)sc1NC(=O)/C=C\c1cccc(O)c1 | 100%
CN1CCc2c(sc(NC(=O)/C=C\C(=O)Nc3ccc(Cl)cc3)c2C(N)=O)C1 | 100%
CC(=O)NCCCCCC(=O)Nc1sc(C(C)c2ccccc2)cc1C(N)=O (stereo not drawn) | 100%
CN1CCc2c(sc(NC(=O)c3sc4ccccc4c3Cl)c2C(N)=O)C1 | 100%
CC(C)c1cc(C(N)=O)c(NC(=O)CCC(=O)N(C)C)s1 | 100%
Cn1cccc1C(=O)Nc1sc2c(c1C(N)=O)CCCC2 | 100%
CC(C)C(=O)Nc1sc2c(c1C(N)=O)CCCC2 | 100%
CC(=O)NC(Cc1c[nH]cn1)C(=O)Nc1sc2c(c1C(N)=O)CCN(C)C2 (stereo not drawn) | 100%
CC(c1ccccc1)c1cc(C(N)=O)c(NC(=O)c2ccc(O)c(Cl)c2)s1 (stereo not drawn) | 100%
COc1ccc2cc(C(=O)Nc3scc(C)c3C(N)=O)[nH]c2c1 | 100%
CC(c1ccccc1)c1cc(C(N)=O)c(NC(=O)C2CC(=O)c3ccccc32)s1 (stereo not drawn) | 100%
Cc1sc(NC(=O)Cc2ccc3c(c2)OCO3)c(C(N)=O)c1C | 100%
CC(=O)N(CC(N)=O)c1sc2c(c1C(N)=O)CCCC2 | 100%
CC(c1ccccc1)c1cc(C(N)=O)c(NC(=O)c2nccc3ccccc23)s1 (stereo not drawn) | 100%
NC(=O)c1c(NC(=O)C2CC2)sc2c1CCCC2 | 100%

SMILES | inhibition
NC(=O)c1cc(-c2ccccc2)sc1NC(=O)c1cccnc1Cl | 100%
CC(=O)NC(=O)C(C)Nc1sc(C(C)C)cc1C(N)=O (stereo not drawn) | 100%
Cc1cccc(NC(=O)c2ccccc2C(=O)Nc2sc3c(c2C(N)=O)CCN(C)C3)c1 | 100%
Cc1ccoc1C(=O)Nc1sc2c(c1C(N)=O)CCCC2 | 100%
Cc1csc(NC(=O)c2nn(-c3ccccc3)nc2C)c1C(N)=O | 100%
Cc1ccc(CC(=O)Nc2sc(C(C)C)cc2C(N)=O)cc1 | 100%
CC(C)c1cc(C(N)=O)c(NC(=O)c2ccc(O)cc2)s1 | 100%
Cc1cccc(C)c1C(=O)Nc1sc(C(C)C)cc1C(N)=O | 100%
CCC(N)C(=O)N(C(N)=O)c1sc(C(C)C)cc1C(N)=O (stereo not drawn) | 100%
CC(=O)N(C#N)c1sc2c(c1C(N)=O)CCCC2 | 100%
CC1=C(C(=O)Nc2sc(C(C)c3ccccc3)cc2C(N)=O)Cc2ccccc21 (stereo not drawn) | 100%
CC(C)c1ccc(C(=O)Nc2sc(Cc3ccccc3)cc2C(N)=O)cc1 | 100%
CN1CCc2c(sc(NC(=O)CCCc3c[nH]c4ccccc34)c2C(N)=O)C1 | 100%
COc1ccc(C(=O)Nc2sc(C)c(C)c2C(N)=O)cc1OC | 100%
Cc1csc(NC(=O)CCc2nc3ccccc3[nH]2)c1C(N)=O | 100%
NC(=O)c1cc(Cc2ccccc2)sc1NC(=O)c1ccc2c(c1)OCO2 | 100%
CC(c1ccccc1)c1cc(C(N)=O)c(NC(=O)c2ccc(Cl)cc2O)s1 (stereo not drawn) | 100%
COc1ccc(C(=O)Nc2sc(Cc3ccccc3)cc2C(N)=O)c(O)c1 | 100%
CN(C)CC(=O)Nc1sc2c(c1C(N)=O)CCCC2 | 100%
Cc1sc(NC(=O)/C=C/CNC2=CCC(=O)C=C2)c(C(N)=O)c1C | 100%
CN(C)c1ccccc1C(=O)Nc1sc(Cc2ccccc2)cc1C(N)=O | 100%
NC(=O)c1cc(-c2ccccc2)sc1NC(=O)C1(c2ccccc2)CC1 | 100%
Cc1sc(NC(=O)c2cc(Cl)ccc2Cl)c(C(N)=O)c1C | 100%

SMILES | inhibition
Cc1sc(NC(=O)c2cccc(C(F)(F)F)c2)c(C(N)=O)c1C | 100%
COc1cc(C(=O)Nc2sc(Cc3ccccc3)cc2C(N)=O)ccc1C | 100%
Cc1csc(NC(=O)CNC(=O)/C=C/c2ccco2)c1C(N)=O | 100%
NC(=O)c1cc(-c2ccccc2)sc1NC(=O)CCc1cccs1 | 100%
NC(=O)c1c(N2C(=O)CCC2C(N)=O)sc2c1CCCC2 (stereo not drawn) | 100%
CC(C)c1cc(C(N)=O)c(NC(=O)CC2CCCC2)s1 | 100%
COc1ccc(Cl)cc1C(=O)Nc1sc(C)c(C)c1C(N)=O | 100%
Cc1ccccc1CC(=O)Nc1sc(C(C)C)cc1C(N)=O | 100%
NC(=O)c1c(NC(=O)c2cccc(O)c2)sc2c1CCCC2 | 100%
Cc1csc(NC(=O)CCCCCN2C(=O)C=CC2=O)c1C(N)=O | 100%
NC(=O)c1cc(Cc2ccccc2)sc1NC(=O)c1cc2ccccc2[nH]1 | 100%
Cc1nocc1C(=O)Nc1sc2c(c1C(N)=O)CCCC2 | 100%
CC(c1ccccc1)c1cc(C(N)=O)c(NC(=O)CCC(=O)c2ccccc2)s1 (stereo not drawn) | 100%
CC1(C)CC(=O)C=C(C(=O)Nc2sc(Cc3ccccc3)cc2C(N)=O)O1 | 100%
NC(=O)c1cc(Cc2ccccc2)sc1NC(=O)c1n[nH]c2ccccc12 | 100%
NC(=O)c1cc(-c2ccccc2)sc1NC(=O)CCN1CCCCC1 | 100%
NC(=O)/C=C\C(=O)N(C(N)=O)c1sc(Cc2ccccc2)cc1C(N)=O | 100%
CN1CCc2c(sc(NC(=O)c3cc(O)c4cc(Cl)ccc4n3)c2C(N)=O)C1 | 100%
CCC(=O)Nc1sc2c(c1C(N)=O)CCCC2 | 100%
CN(C)c1cccc(C(=O)Nc2sc(Cc3ccccc3)cc2C(N)=O)c1 | 100%
Cc1csc(NC(=O)CCNC(=O)c2ccccc2)c1C(N)=O | 100%
NC(=O)c1cc(-c2ccccc2)sc1NC(=O)c1ccc(Cl)nc1 | 100%
COc1ccccc1C(=O)Nc1sc(-c2ccccc2)cc1C(N)=O | 100%

SMILES | inhibition
CC(c1ccccc1)c1cc(C(N)=O)c(NC(=O)c2cccc3ccccc23)s1 (stereo not drawn) | 100%
Cc1sc(NC(=O)c2c(Cl)cccc2Cl)c(C(N)=O)c1C | 100%
CNC(=O)CN(C(=O)c1ccccc1)c1scc(C)c1C(N)=O | 100%
NC(=O)c1cc(Cc2ccccc2)sc1NC(=O)c1ccc2c(c1)C=NC2 | 100%
NC(=O)c1cc(Cc2ccccc2)sc1NC(=O)CCN1C(=O)C=CC1=O | 100%
CN1CCc2c(sc(NC(=O)C(Cc3ccccc3)NC(=O)c3ccccc3)c2C(N)=O)C1 (stereo not drawn) | 100%
Cc1sc(NC(=O)c2nc3ccccc3nc2O)c(C(N)=O)c1C | 100%
COc1ccc(CC(=O)Nc2scc(C)c2C(N)=O)c(OC)c1 | 100%
Cc1csc(NC(=O)C(C)NC(=O)c2ccccc2)c1C(N)=O (stereo not drawn) | 100%
Cc1oncc1C(=O)Nc1sc2c(c1C(N)=O)CCCC2 | 100%
CC(C)c1cc(C(N)=O)c(NC(=O)/C=C/c2cccnc2)s1 | 100%
CC(=O)CC(=O)N(CC(N)=O)c1sc(-c2ccccc2)cc1C(N)=O | 100%
COc1cc(OC)c(C(=O)Nc2scc(C)c2C(N)=O)cc1OC | 100%
CCCN(C(=O)/C=C\C(N)=O)c1sc(-c2ccccc2)cc1C(N)=O | 100%
COc1cccc(C(=O)Nc2sc(Cc3ccccc3)cc2C(N)=O)c1O | 100%
Cc1csc(NC(=O)C2c3ccccc3-c3ccccc32)c1C(N)=O | 100%
CC(c1ccccc1)c1cc(C(N)=O)c(NC(=O)c2cnnc3ccccc23)s1 (stereo not drawn) | 100%
Cc1csc(NC(=O)CCn2ccc3ccccc32)c1C(N)=O | 100%
NC(=O)c1cc(-c2ccccc2)sc1NC(=O)Cc1ccc(O)cc1 | 100%
CC(c1ccccc1)c1cc(C(N)=O)c(NC(=O)c2cn(C)c3ccccc23)s1 (stereo not drawn) | 100%
NC(=O)c1c(NC(=O)c2ccccc2O)sc2c1CCCC2 | 100%
